From a melting point compilation (Tetko et al.; mined from patent text by program, amines drawn as free bases though some values may be those of a salt) come the findings set out here.

Each structure is given as a SMILES string.

`COC(=O)C1COc2ccccc2C1` (centres undefined) gave a melting point of 83 to 84 °C. Turning to `CCCCCCCCCCOc1ccc(O)c2ccccc12`, the melting point fell in the range of 89 to 90 °C. Then `COc1ccc(N2CCN(c3ccc(OC)nc3-c3ccc(C(C)(C)O)cc3)CC2)cc1`, with 138 to 144 °C; and `Cc1nnc2n1-c1ccc(C#C[Si](C)(C)C)cc1C(c1ccccc1F)=NC2`, with 218 to 219 °C; and `COP(=O)(CCC(C)(C)c1cc(O)c(C(C)(C)C)cc1O)OC`, with 193 to 195 °C. Then `COc1ccccc1N1CCN(CCn2cnc3sc4c(c3c2=O)CCNC4)CC1`, with 168 to 170 °C. Then `CC(C)(C)OC(=O)N1C[C@@H](c2c[nH]c3ccccc23)[C@H](c2cn3c4c(cccc24)CCC3)C1`, with 239 to 240 °C. Turning to `N#Cc1cccc(OC(=O)C(=O)Oc2cccc(C#N)c2)c1`, the melting point was in the range of 187 to 190 °C.

With `CCn1cc(C2(c3cccc(-c4cccnc4F)c3)N=C(N)N3CCCN=C32)cn1` (centres undefined), the melting point fell in the range of 91 to 115 °C. Then `CCC1CC(=O)N(Cc2ccc(NC(C)=O)cc2)N=C1c1ccc(OC)c(OC2CCCC2)c1` (centres undefined), with 162 °C; and `c1ccc(-c2nnc3cc(-c4cccnc4)c(OCc4ccccn4)nn23)cc1`, with 206 °C; and `CCn1cc(-c2ccccc2)c2ncccc2c1=O`, with 142 °C. For the compound `Cc1cn([C@H]2C=C[C@@H](O)C2)c(=O)nc1-n1cncn1` (racemic), the melting point lay within 143 to 146 °C.

Consider `O=C1c2c(OCc3ccccc3)cccc2-c2nn(CCN(CCO)Cc3ccccc3)c3ccc(Cl)c1c23`, for which the melting point fell in the range of 130 to 134 °C.

Compound `Nc1cc(Sc2cccc3cnccc23)c(Cl)cc1[N+](=O)[O-]` had a melting point of over 270 °C. `CN(C)C=C(C=O)OCCO` showed a melting point of 148 to 150 °C. The figure for `C=C(CC(Cl)(Cl)Cl)c1cc(Cl)nc(Cl)c1` is 82 to 83 °C.

`N#Cc1c(N2CCc3ccccc3CC2)[nH]c(=O)[nH]c1=O` displayed a melting point of 183 to 186 °C.

`O=C1N(C2CCCCC2)CC(CCl)C1(c1ccccc1)c1ccccc1` (centres undefined): the melting point lay within 124 to 126 °C. Then `CNC(=O)C(Cc1ccc(OC)cc1)NC(=O)C(CC(C)C)C(S)CC(=O)OCc1ccccc1` (centres undefined), with 133 to 135 °C; and `CC(C)CN1CCC(CNc2ccc(Cl)cc2C(=O)Nc2ccc(Cl)cn2)CC1`, with 121 to 122 °C. On to `CCOC(=O)CSc1nnc(-c2ccc3c(c2)CCO3)o1`, for which the melting point was in the range of 92 to 93 °C.

`CC(C)(C)c1cc(C(=O)Nc2nc(CC(=O)NCCN3CCN(c4ncccn4)CC3)cs2)cc(C(C)(C)C)c1O` registered a melting point of 175 to 179 °C. With `COc1cc([N+](=O)[O-])ccc1-c1cnn(C)c1`, the melting point was 132 to 134 °C. The figure for `CC(O)c1cccc(S(N)(=O)=O)c1` (centres undefined) is 137 to 139 °C; for `NC(N)=Nc1nc(-c2ccc(-c3nc(N)n[nH]3)o2)cs1` it is over 300 °C.

The compound `Cc1n[nH]c(C)c1Oc1cc(Cl)cc(C#N)c1` came in with a melting point of 136 to 140 °C. For the compound `Cc1c(CO)ncn1C(c1ccccc1)(c1ccccc1)c1ccccc1`, the melting point lay in the range of 255 to 260 °C. Then `CNC(=S)NCCCCC(NC(=O)C(Cc1cccc2ccccc12)Cc1cccc2ccccc12)C(=O)NC(CC(C)C)C(O)C(=O)OC(C)C` (centres undefined), with 93 to 95 °C. As for `Cc1cc(SCc2sc(-c3ccc(C(F)(F)F)cc3)nc2C)c2c(c1OCC(=O)O)CCO2`, the melting point was 157 to 158 °C.

As to `COc1cc(C(C)C)c(Oc2cnc(N)nc2N)cc1I`, the melting point lay within 204 to 206 °C. `CNC1([C@@H]2CCN(c3ccc4c(=O)c(C(=O)O)cn(C5CC5)c4c3C)C2)CC1` returned a melting point of 190 to 192 °C.

Turning to `OC(C#Cc1ccncc1)c1ccccc1` (centres undefined), the melting point was in the range of 93 to 96 °C. The compound `O=CNCc1ccccc1C(F)(F)C(F)(F)c1ccccc1` registered a melting point of 61 to 75 °C.

The melting point is the temperature of the solid-liquid transition.
